Values of other authors, collected in paper PMC4876630 (Theranostics, 2016).

Conditions: ref [4]-[8]

In the case of CC[C@@]1(O)C(=O)OCc2c1cc1n(c2=O)Cc2cc3ccccc3nc2-1 [CPT, camptothecin], the Aqueous solubility is given as 2 to 3 µg/mL.
